Test results published in patent US4483833A, “Process for selective removal of H2 S from mixtures containing H2 2 with heterocyclic tertiary aminoalkanols” (Exxon Research & Engineering Co., priority 1982, dated 1984).
Read-outs that look alike come from different tables or passages of the source. Values belong to the compound of their own block, whether it stands above or below them.

How the values were obtained:
pKa of aminoalkanol = assay type: physicochemical; settings: at 20° C.
[1] = Boiling point (volatility) of aminoalkanol; assay type: physicochemical
Text: Also, to insure operational efficiency with minimal losses of the amino compound, the amino compound should have a relatively low volatility. […]
It can be seen that in each case the boiling points increase relative to the respective parent compound while the pKa remains constant.

[2] = 15N NMR chemical shift as a means of determining selectivity to H2S removal; assay type: physicochemical; settings: 90% by wt. amine in 10% by wt. D2O, 35° C.; liquid ammonia at 25° C. as zero reference
Method: Another means for determining whether an amino compound is selective to H2 S removal is by measuring its 15N nuclear magnetic resonance (NMR) chemical shift. […] D2 O at 35° C. is measured by a spectrometer using liquid (neat) ammonia at 25° C. as a zero reference value. For example, N-(2-hydroxyethoxyethyl)pyrrolidine (HEEP) has a ^15 N NMR chemical shift value of δ+53.2 ppm whereas diethylmonoethanolamine (DEAE), N-methyl-N-tertiarybutylaminoethoxyethanoland methyldiethanolamine (MDEA) have ^15 N NMR chemical shift values of δ+43.7, δ+45.0 and δ+27.4 ppm, respectively.

[3] = pressure not stated; background; cited from earlier work

Compound: CCN(CC)CCO [DEAE, diethylmonoethanolamine]
- boiling point [3]: 161 °C

Compound: CN1CCCCC1CCO (stereo not drawn) [MHEPi, N-methyl-2-hydroxyethylpiperidine]
- pKa (pKa of aminoalkanol): 9.90
- boiling point ([1]; at 760 mm): 233 °C

Compound: CC(O)COC(C)CN1CCCC1 (stereo not drawn)
- pKa (pKa of aminoalkanol): 10.20
- boiling point ([1]; at 1 mm): 100 °C

Compound: CC(CCO)N1CCCC1 (stereo not drawn) [H2BP, N-(4-hydroxy-2-butyl)pyrrolidine]
- pKa (pKa of aminoalkanol): 10.25
- boiling point ([1]; at 7 mm): 98 °C

Compound: CC(O)CN1CCCC1 (stereo not drawn)
- pKa (pKa of aminoalkanol): 10.20
- boiling point ([1]; at 14 mm): 75 °C

Next, values leading:

- pKa (pKa of aminoalkanol): 10.21
- boiling point ([1]; at 2 mm): 95 °C
Compound: OCCCCN1CCCC1 [HBP, N-(4-hydroxybutyl) pyrrolidine]

- pKa (pKa of aminoalkanol): 10.20
- boiling point ([1]; at 13 mm): 101 °C
Compound: OCCCN1CCCC1 [drawing 3]

- pKa (pKa of aminoalkanol): 9.95
- 15N NMR chemical shift (δ+) [2]: 53.2 ppm
- boiling point ([1]; at 5 mm): 110 °C
Compound: OCCOCCN1CCCC1 [HEEP, N-(2-hydroxyethoxyethyl)pyrrolidine]

- pKa (pKa of aminoalkanol): 10.2
- boiling point ([1]; at 5 mm): 97 °C
Compound: OCCCN1CCCCC1 [HPPi, N-(3-hydroxypropyl)piperidine]

- pKa (pKa of aminoalkanol): 10.20
- boiling point ([1]; at 20 mm): 140 °C
Compound: OCCOCCCN1CCCC1

- pKa (pKa of aminoalkanol): 10.21
- boiling point ([1]; at 13 mm): 103 °C
Compound: OCCCN1CCCC1 [HPP, N-(3-hydroxypropyl)pyrrolidine]

- pKa (pKa of aminoalkanol): 9.95
- boiling point ([1]; at 13 mm): 80 °C
Compound: OCCN1CCCC1 [HEP, N-hydroxyethylpyrrolidine]
